Experimental data taken from patent EP2818472A1, “Imidazo[4,5-c]pyridine and pyrrolo[3,2-c]pyridine compounds as G-protein-coupled receptor kinase 5 (GRK5) modulators” (Max-Planck-Gesellschaft zur Förderung der Wissenschaften …, priority 2013, dated 2014).

Experiments:
beta-TC6 cells [1] = assay: Glucose dependent insulin release by beta-TC6 cells in low glucose medium, rat/mouse insulin ELISA; type: cell-based; parameters: unit not given here; settings: media with 1.125 mM (20 mg/dL) glucose, 2 h, compared with DMSO control
beta-TC6 cells [2] = assay: Insulin release by beta-TC6 cells in high glucose medium, rat/mouse insulin ELISA; type: cell-based; settings: 2 h; for Insulin release by beta-TC6 cells at 5µM [%]: 5 µM compound, high glucose (4.5 g/L) DMEM, % increase in regard to the DMSO control (set at 0%)
Protocol: After having identified the most promising compounds acting as GRK5 inhibitors and determined the IC50 values, the effect of the compounds of the example 2 on the release of insulin by beta-TC6 was determined. […] Release of insulin was detected using a rat/mouse insulin ELISA.
To order to measure the insulin released by beta-TC6 insulinoma (mouse) cells upon treatment with the compounds of the present invention, beta-TC6 insulinoma (mouse)cells were washed and incubated for 2 h in high (4.5 g/L) or low (1.125 g/L) glucose media at 37 °C. After incubation, the supernatant of the beta-TC6 insulinoma cells was diluted 1:20. The insulin release was measured with rat/mouse insulin ELISA (Merck Millipore Darmstadt, Cat. # EZRMI-13K) by following the manufacture protocol. The enzyme activity of the horseradish peroxidase of the immobilized biotinylated antibodies was monitored spectrophotometrically by the increased absorbency at 490 nm, and corrected by the absorbency at 610 nm. […] Table 3: Insulin release by beta-TC6 cells treated with the compounds of the present invention (the % values are in regard to the DMSO control, thus 30% means an increase of insulin release of 30% in regard to the physiological conditions where the insulin release is set at 0%)

C2C12 cells = assay: 2-NBDG glucose uptake in C2C12 cells, flow cytometry; type: cell-based; settings: 5 µM compound, 1 h, glucose free media with 100 µM 2-NBDG
Protocol: To investigate the impact of the GRK5 inhibitors on glucose uptake, the fluorescent D-glucose analog 2-[N-(7-nitrobenz-2-oxa-1,3-diazol-4-yl)-amino]-2-deoxy-D-glucose (2-NBDG) was used. 2-NBDG is a fluorescently-labeled deoxyglucose analog that is commonly used to directly monitor glucose uptake by living cells. For 2-NBDG detection, cells were cultured for 1 h together with 5 µM of an inventive compound in glucose free media supplied with 100 µM 2-NBDG at 37 °C before collecting. Furthermore, as internal controls, samples of glucose free media, respectively glucose free media with test compound, were tested. Subsequently, cells were washed, trypsinized and harvested in ice-cold PBS before centrifuged at 1.6 x10^3 rpm at 4°C. Cells were analyzed by flow cytometry (FACS Calibur, BD Bioscience, respectively a BD Accuri® C6 Flow Cytometer). For evaluation, cells were gated using the side- and forward scatter SSC/FSC and quantified by excited at 488 nm and collected at […] (FL1). Table 4: 2-NBDG glucose uptake (%) by cells treated with the compounds of the present application

beta-TC6 cells [3] = assay: Insulin HTRF assay (relative activity Ar) in beta-TC6 cells; type: cell-based, mouse; settings: Mus musculus, Beta-TC6, 4 h, insulin HTRF, supernatant of beta-TC6 cells, incubation with test compound at 37°C for 2, 3, 4h; read-out: Ar (relative activity)
Method in brief: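 beta-TC6 cells (15k/well, seeded 24 or 48 h) washed, then exposed to compound in induction buffer (0.5% DMSO final) for 2, 3 or 4 h at 37°C.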

Compound | insulin release in low glucose media (beta-TC6 cells [1]) | Insulin release by beta-TC6 cells at 5µM [%] (beta-TC6 cells [2]) | effect on the insulin release by beta-TC6 cells compared with the positive control Sunitinib (beta-TC6 cells [2]; 5 µM, high glucose (4.5 g/L)) | 2-NBDG Glucose Uptake [%] (C2C12 cells) | Emax (beta-TC6 cells [3]) [%]
CCN(CC)CCNC(=O)c1c(C)[nH]c(/C=C2\C(=O)Nc3ccc(F)cc32)c1C [Sunitinib] | 0.77 ± 0.03 | – | – | – | –
Cn1c(-c2cccnc2)cc2c(Nc3cccc(C(F)(F)F)c3)nccc21 [Compound 243, 1-methyl-2-(3-pyridyl)-N-[3-(trifluoromethyl)phenyl]pyrrolo[3,2-c]pyridin-4-amine] | – | 142.26 | better effect on the insulin release by beta-TC6 cells than the positive control Sunitinib | 48.87 | 0 to 30
COc1ccccc1-c1cc2c(Nc3ccc(SC)cc3)nccc2n1C [Compound 305, 2-(2-methoxyphenyl)-1-methyl-N-(4-methylsulfanylphenyl)pyrrolo[3,2-c]pyridin-4-amine] | – | 20.24 | – | 50.81 | 30 to 50
